These results are taken from a melting point compilation (Tetko et al.; mined from patent text by program, amines drawn as free bases though some values may be those of a salt).

What is called melting point is the temperature of the solid-liquid transition.

Consider `CCOC(=O)C(=CNc1ccnn1Cc1ccco1)C(=O)OCC`, for which the melting point lay within 84 to 86 °C.

Take `CS(=O)(=O)OC1CN(C(c2ccccc2)c2ccccc2)C1`: the melting point is 85 to 87 °C.

Consider `CCCCC(=O)SCC(Cc1ccccc1)C(=O)Nc1cccc(C(=O)O)c1C` (centres undefined), for which the melting point is 113 to 114 °C.

The compound `O=C(O)CCc1ccc(OCc2ccc(CN(CCc3ccccc3)c3nc(-c4ccccc4)cs3)cc2)cc1` registered a melting point of 114 to 115 °C.

`CCOC(=O)c1ccc(NCCc2ccc(Cl)cc2)cc1` gave a melting point of 75 to 77 °C.

With `O=C1C(Cc2ncccc2Br)c2ccccc2C12COc1cc3c(cc12)OCCO3` (centres undefined), the melting point is 217 to 218 °C.

With `COc1ccc2[nH]c3c(C)c4ccnc(NC5CC(C)(C)NC(C)(C)C5)c4cc3c2c1`, the melting point was in the range of 223 to 225 °C.

For the compound `O=C(O)CCC(Oc1cccc(OCc2ccccc2)c1)c1ccccc1` (racemic), the melting point lay in the range of 100 to 104 °C.

The compound `Nc1c(Cl)ncnc1NCCc1ccccc1` gave a melting point of 156 to 157 °C.

`CC(C=Cc1ccccc1)NC(=O)c1ccccc1` (racemic) came in with a melting point of 135 °C.

In turn, `COc1cc([N+](=O)[O-])c2nc(C(F)(F)F)cc(O)c2c1` came in with a melting point of 138 to 140 °C.

`Nc1nc(Cl)cc(Oc2ccc3c(C(=O)Nc4cccc(C(F)(F)F)c4)cccc3c2)n1`: the melting point was 234 to 236 °C.

With `O=C(Oc1ccccc1)Sc1nc2ccccc2n1C1CCN(C(=O)Oc2ccccc2)CC1`, the melting point was 200 to 203 °C.

Take `O=C(O)Cc1ccc(NC(=O)C(COc2ccc(Cl)cc2)NS(=O)(=O)c2ccc(Cl)cc2)cc1` (racemic): the melting point was in the range of 205 to 207 °C.

As for `CC(=O)SC1C2=C(CCCC2)C(=O)N1c1ccc(Br)cc1F` (centres undefined), the melting point was 117 to 118 °C.

The compound `CCCCc1nc2c(N)nc3ccc(OCCC4CCNCC4)cc3c2n1C` displayed a melting point of 210 to 212 °C.

As to `CC1=C(C)C(=O)C(CCCOc2ccc(C=C3SC(=O)NC3=O)cc2)=C(C)C1=O`, the melting point lay within 230 to 232 °C.

The compound `O=C(Nc1ccc2[nH]c(=O)oc2c1)C(=O)N1CCC(Cc2ccc(C(F)(F)F)cc2)CC1` showed a melting point of 217 °C.

Turning to `CSCc1cn(C)c2cc(F)ccc2c1=O`, the melting point lay within 167 to 169 °C.

In turn, `OCCc1c(C2=CCC(c3ccccc3)(N3CCCC3)CC2)[nH]c2ccc(F)cc12` (centres undefined) returned a melting point of 188 to 191 °C.

For `Cc1ccc(C)c(OCc2ccccc2C(=NOC(F)F)C(N)=O)c1`, the melting point was 153 to 156 °C.

For the compound `O=C(Oc1cc([N+](=O)[O-])cc([N+](=O)[O-])c1O)c1ccccc1`, the melting point fell in the range of 150 to 152 °C.

Turning to `COc1ccc2c(c1)c(-c1cc3c(Cl)ccnc3[nH]1)cn2C`, the melting point lay within 250 to 252 °C.

Take `CN(C)CCCC1CCCN(C(=O)N2c3ccccc3C(=O)Nc3cccnc32)C1` (centres undefined): the melting point lay within 115 to 117 °C.

The compound `CS(=O)(=O)Nc1cccc(Nc2nc(NC3CN4CCC3CC4)c3nc[nH]c3n2)c1` (centres undefined) showed a melting point of 200 to 204 °C.

With `C=Cc1ccc(-c2nc(C)c3c(n2)sc2c(OCC)nc(N4CCNCC4)nc23)cc1`, the melting point is 165 to 166 °C.

On to `CC(=O)NC[C@H]1CN(c2ccc(N3CCC(c4noc(C)n4)CC3)c(F)c2)C(=O)O1`, for which the melting point lay within 136 to 138 °C.

The compound `CCN(CC)C(=O)/C=C/c1ccc(Cn2c(-c3ccc(O)cc3)c(C)c3cc(O)ccc32)cc1` gave a melting point of 160 to 165 °C.

`CSc1ccc2c(c1)Cc1ccc(CO)cc1O2` yielded a melting point of 151 to 153 °C.

`CCc1ccc(-c2ccc3c(c2)C=C(C(=O)O)CCO3)cc1` returned a melting point of 241 to 243 °C.

For `O=c1ncc(Cl)cn1CS(=O)c1ccc(Cl)cc1` (centres undefined), the melting point amounted to 262 °C.

In turn, `Nc1cc(=O)n(Cc2cccc(Cl)c2)[nH]1` returned a melting point of 132 °C.

As to `COc1ccc(-c2nc(N)ncc2-c2ccc(=O)n(C(C)C)n2)cc1`, the melting point was determined as 216 °C.

Take `Cn1nc(-c2ccccc2)cc1-c1ccccc1`: the melting point was 52 to 53 °C.
